# Values joined by “and” are separate entries in the source; they are usually repeats but may differ in a detail not shown here. Identical values can stand only once. Like-named read-outs stand apart in the source and are kept apart here.
# Assays:
# KPC-2 = KPC-2 (Klebsiella pneumoniae, UniProt Q9F663); test: In vitro SBL inhibition assay (nitrocefin hydrolysis), IC50; assay type: biochemical
# Procedure: (§1) Nitrocefin (Sigma-Aldrich, St Louis, MO, USA), a chromogenic cephalosporin antibiotic (λ, 482 nm; εM, 15,000 M^−1.cm^−1), was used as a reporter substrate at 100 µM for KPC-2, OXA-23, and OXA-48, at 200 µM for OXA-24 and OXA-51, and at 50 µM for OXA-58. Enzymes were preincubated in the presence of varying concentrations of each compound (0.006 to 3000 nM, diluted twofold in dimethyl sulfoxide (DMSO) for KPC-2, OXA-23, and OXA-48 assays and 0.51 to 10,000 nM diluted threefold in DMSO for OXA-24, OXA-51, and OXA-58) for 10 min at 30°C. Nitrocefin was then added and its hydrolysis by the uninhibited enzyme fraction was followed at an absorbance wavelength of 482 nm for 10 min at 30°C using Envision UV fluorescence plate reader (Perkin Elmer, Waltham, MA, USA). Hydrolysis rate data were used to determine inhibitory activities, expressed in IC50 values [corresponding to the compound concentration (µM) required to inhibit 50% of enzymatic reaction].
# OXA-23 = OXA-23 (Acinetobacter baumannii, UniProt Q9L4P2); test: as above; assay type: biochemical; details: 10 min preincubation, 30°C, read-out: Enzyme IC50
# Procedure: as §1
# OXA-24/40 = OXA-24/40 (Acinetobacter baumannii, UniProt Q8RLA6); test: as above; assay type: biochemical; details: 10 min preincubation, 30°C, read-out: Enzyme IC50
# Procedure: as §1
# OXA-51 = OXA-51 (Acinetobacter baumannii, UniProt Q5QT35); test: as above; assay type: biochemical, A. baumannii; details: 10 min preincubation, 30°C, read-out: Enzyme IC50
# Procedure: as §1
# OXA-58 = OXA-58 (Acinetobacter baumannii, UniProt Q2TR58); test: as above; assay type: biochemical, A. baumannii
# Procedure: as §1
# OXA-48 = OXA-48 (Klebsiella pneumoniae, UniProt Q6XEC0); test: as above; assay type: biochemical; details: 10 min preincubation, 30°C, read-out: Enzyme IC50
# Procedure: as §1
# [1] = tested on: A. baumannii clinical isolates; test: Broth microdilution MIC, A. baumannii clinical isolates; assay type: cell-based, Acinetobacter baumannii; details: for CLSI % Res: CLSI BP, for MEM-ANT3310 % at ≥16 µg/mL; for EUCAST % Res / EUCAST % Sus: EUCAST BP; for Number of isolates inhibited at MIC of >16 µg/mL: footnote c
# Procedure: (§2) All isolates were randomly selected from the frozen culture collection of IHMA collected in 2018 and 2019. Matrix-assisted laser desorption ionization-time of flight mass spectrometry was used to confirm the identity of the organisms tested (Bruker Daltonics, Bremen, Germany).
# (§3) MICs for all antimicrobial agents were determined at IHMA by broth microdilution in accordance with both CLSI ([17]) and EUCAST ([18]) guidelines. Microtiter panels were prepared by IHMA and stored at −70°C in cation-adjusted Mueller Hinton broth (CAMHB) (Becton Dickinson). Iron-depleted CAMHB was used to test cefiderocol. Panels containing ANT3310 were prepared fresh on the day of testing. […] MIC values corresponded to the first well with no visible growth. Quality control testing was performed on each day of testing with E. coli ATCC 25922, P. aeruginosa ATCC 27853, K. pneumoniae ATCC 700603 and BAA 1705, and A. baumannii NCTC 13304. MICs were interpreted using 2023 CLSI ([17]) and EUCAST ([18]) BPs.
# [2] = tested on: carbapenem-resistant Acinetobacter baumannii (CRAB) clinical isolates; test: Broth microdilution MIC, CRAB isolates; assay type: cell-based; details: for CLSI % Res / EUCAST % Res / EUCAST % Sus / Number of isolates inhibited at MIC of >16 µg/mL: CRAB; for CLSI % Res: CLSI BP, for MEM-ANT3310 % at ≥16 µg/mL; for EUCAST % Res / EUCAST % Sus: EUCAST BP; for Number of isolates inhibited at MIC of >16 µg/mL: footnote c
# Procedure: as §2, §3
# [3] = tested on: KPC-producing Enterobacterales (KPC-CRE); test: organism not typed; assay type: cell-based; details: 180 KPC-producing Enterobacterales
# Procedure: as §2, §3
# [4] = tested on: OXA-producing Enterobacterales (OXA-CRE); test: organism not typed; assay type: cell-based; details: 252 OXA-producing Enterobacterales
# Procedure: as §2, §3
# [5] = tested on: P. aeruginosa clinical isolates; test: Broth microdilution MIC, P. aeruginosa clinical isolates; assay type: cell-based, Pseudomonas aeruginosa; details: 502 P. aeruginosa, 2019 global collection
# Procedure: as §2, §3
# [6] = 2018 Global collection, All A. baumannii, N 500
# [7] = 2019 Global collection, All A. baumannii, N 405
# [8] = CLSI BP, for MEM-ANT3310 % at ≥16 µg/mL
# OXA-51, sequence (Q5QT35 entry or part of it): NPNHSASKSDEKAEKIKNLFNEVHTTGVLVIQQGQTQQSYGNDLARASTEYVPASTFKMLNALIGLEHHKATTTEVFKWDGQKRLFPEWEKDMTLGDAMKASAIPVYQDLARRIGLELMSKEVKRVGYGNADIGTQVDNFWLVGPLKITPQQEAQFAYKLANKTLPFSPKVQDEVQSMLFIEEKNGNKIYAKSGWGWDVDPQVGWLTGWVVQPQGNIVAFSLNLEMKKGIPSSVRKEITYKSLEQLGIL
# OXA-23, sequence (Q9L4P2 18-273): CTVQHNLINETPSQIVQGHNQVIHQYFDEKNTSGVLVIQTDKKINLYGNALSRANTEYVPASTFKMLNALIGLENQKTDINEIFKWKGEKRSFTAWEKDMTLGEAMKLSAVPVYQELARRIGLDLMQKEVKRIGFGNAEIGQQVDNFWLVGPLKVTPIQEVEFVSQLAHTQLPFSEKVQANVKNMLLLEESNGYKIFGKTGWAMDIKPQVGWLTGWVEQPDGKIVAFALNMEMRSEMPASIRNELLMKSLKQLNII
# OXA-48, sequence (Q6XEC0 23-265, looked up, species assumed): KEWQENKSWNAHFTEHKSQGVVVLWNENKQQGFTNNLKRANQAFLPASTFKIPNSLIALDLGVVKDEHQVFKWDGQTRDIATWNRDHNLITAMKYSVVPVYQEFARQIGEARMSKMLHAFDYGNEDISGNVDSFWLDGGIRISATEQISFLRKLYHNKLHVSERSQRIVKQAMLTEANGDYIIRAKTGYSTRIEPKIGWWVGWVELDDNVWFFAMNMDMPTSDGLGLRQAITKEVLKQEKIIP
# OXA-58, sequence (Q2TR58 19-280): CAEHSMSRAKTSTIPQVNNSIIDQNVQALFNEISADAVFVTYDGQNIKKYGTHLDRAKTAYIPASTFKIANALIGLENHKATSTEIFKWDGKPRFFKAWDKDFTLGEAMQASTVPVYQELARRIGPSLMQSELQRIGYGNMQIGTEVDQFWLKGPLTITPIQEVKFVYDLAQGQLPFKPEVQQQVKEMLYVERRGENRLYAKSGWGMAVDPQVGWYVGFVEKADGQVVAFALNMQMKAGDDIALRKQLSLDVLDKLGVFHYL
# KPC-2, sequence (Q9F663 25-293 limits assumed): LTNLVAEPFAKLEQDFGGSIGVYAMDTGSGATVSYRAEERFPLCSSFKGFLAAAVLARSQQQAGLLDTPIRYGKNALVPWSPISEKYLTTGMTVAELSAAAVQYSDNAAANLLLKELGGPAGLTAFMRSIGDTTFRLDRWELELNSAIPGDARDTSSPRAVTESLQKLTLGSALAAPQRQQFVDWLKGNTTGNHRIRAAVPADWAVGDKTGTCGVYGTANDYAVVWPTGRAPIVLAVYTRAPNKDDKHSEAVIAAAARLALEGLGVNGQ
# OXA-24/40, sequence (Q8RLA6 22-275): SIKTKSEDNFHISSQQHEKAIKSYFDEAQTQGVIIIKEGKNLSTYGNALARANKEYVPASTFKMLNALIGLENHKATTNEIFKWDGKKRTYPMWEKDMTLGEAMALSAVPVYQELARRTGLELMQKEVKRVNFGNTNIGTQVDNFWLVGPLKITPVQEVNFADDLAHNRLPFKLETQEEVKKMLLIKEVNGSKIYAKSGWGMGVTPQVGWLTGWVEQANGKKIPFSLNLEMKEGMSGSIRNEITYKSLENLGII
compound,measurement,setting,value
"O=C(NNC(=O)[C@@H]1CC[C@@H]2CN1C(=O)N2OS(=O)(=O)O)[C@@H]1CCCNC1 [Zid, zidebactam]",IC50,KPC-2,0.0389 µM
same,IC50,OXA-23,> 3 µM
same,IC50,OXA-24/40,> 10 µM
same,IC50,OXA-51,> 10 µM
same,IC50,OXA-58,> 10 µM
"O=C(NC1CCNCC1)[C@@H]1CC[C@@H]2CN1C(=O)N2OS(=O)(=O)O (relative stereo) [Rel, relebactam]",IC50,OXA-23,> 3 µM
same,IC50,OXA-24/40,> 10 µM
same,IC50,OXA-51,> 10 µM
same,IC50,OXA-58,> 10 µM
"O=C(O)C[C@@H]1CC[C@H](NC(=O)Cc2cccs2)B(O)O1 [Vab, vaborbactam]",IC50,"KPC-2; KPC-2, 10 min preincubation, 30°C, read-out: Enzyme IC50",0.102 µM
same,IC50,OXA-23,> 3 µM
same,IC50,OXA-48,> 3 µM
same,IC50,OXA-58,> 10 µM
"CC1=C[C@@H]2CN(C(=O)N2OS(=O)(=O)O)[C@@H]1C(N)=O [Dur, durlobactam]",IC50,KPC-2,0.0053 µM
same,IC50,OXA-23,0.347 µM
same,IC50,OXA-24/40,0.208 µM
same,IC50,OXA-48,0.0034 µM
same,IC50,OXA-51,4.3 µM
same,IC50,OXA-58,0.011 µM
colistin,MIC50,[1]; [6],0.25 µg/mL
same,MIC90,[1]; [6],0.5 µg/mL
same,Number of isolates inhibited at MIC of 0.25 µg/mL,[1]; [6],287
same,Number of isolates inhibited at MIC of 0.5 µg/mL,[1]; [6],165
same,Number of isolates inhibited at MIC of 1 µg/mL,[1]; [6],15
same,Number of isolates inhibited at MIC of 4 µg/mL,[1]; [6],3
same,Number of isolates inhibited at MIC of 8 µg/mL,[1]; [6],2
same,Number of isolates inhibited at MIC of 16 µg/mL,[1]; [6],2
same,Number of isolates inhibited at MIC of ≤0.125 µg/mL,[1]; [6],22
same,CLSI % Res,[1]; [6],2.2%
same,EUCAST % Res,[1]; [6],2.2%
same,EUCAST % Sus,[1]; [6],97.8%
same,Number of isolates inhibited at MIC of >16 µg/mL,[1]; [6],4^c
same,MIC50,[1]; [7],0.5 µg/mL
same,MIC90,[1]; [7],1 µg/mL
same,Number of isolates inhibited at MIC of 0.25 µg/mL,[1]; [7],32
same,Number of isolates inhibited at MIC of 0.5 µg/mL,[1]; [7],296
same,Number of isolates inhibited at MIC of 1 µg/mL,[1]; [7],66
same,Number of isolates inhibited at MIC of 2 µg/mL,[1]; [7],5
same,Number of isolates inhibited at MIC of 4 µg/mL,[1]; [7],1
same,Number of isolates inhibited at MIC of 16 µg/mL,[1]; [7],1
same,CLSI % Res,[1]; [7],1.5%
same,EUCAST % Res,[1]; [7],1.5%
same,EUCAST % Sus,[1]; [7],98.5%
same,Number of isolates inhibited at MIC of >16 µg/mL,[1]; [7],4^c
same,% susceptible at EUCAST BP,"[1]; A. baumannii, 2018/2019 collections",98.1%
same,MIC90,"[1]; A. baumannii, one or both of the 2018/2019 collections",1 µg/mL
same,MIC50,[2],0.25 µg/mL and 0.5 µg/mL
same,MIC90,[2],0.5 µg/mL and 1 µg/mL
same,Number of isolates inhibited at MIC of 4 µg/mL,[2],2
same,Number of isolates inhibited at MIC of 8 µg/mL,[2],2
same,Number of isolates inhibited at MIC of 16 µg/mL,[2],2
same,Number of isolates inhibited at MIC of ≤0.125 µg/mL,[2],13
same,CLSI % Res,"[2]; 2018 Global collection, N 363",2.8%
same,EUCAST % Res,"[2]; 2018 Global collection, N 363",2.8%
same,EUCAST % Sus,"[2]; 2018 Global collection, N 363",97.2%
same,Number of isolates inhibited at MIC of >16 µg/mL,"[2]; 2018 Global collection, N 363",4^c
same,Number of isolates inhibited at MIC of 2 µg/mL,"[2]; 2019 Global collection, CRAB (MEM MICs >4 µg/mL), N 340",4
same,CLSI % Res,"[2]; 2019 Global collection, N 340",1.2%
same,EUCAST % Res,"[2]; 2019 Global collection, N 340",1.2%
same,EUCAST % Sus,"[2]; 2019 Global collection, N 340",98.8%
same,Number of isolates inhibited at MIC of >16 µg/mL,"[2]; 2019 Global collection, N 340",4^c
same,MIC50,[3]; 2018 global collection,0.25 µg/mL
same,MIC90,[3]; 2018 global collection,16 µg/mL
same,CLSI % Res,[3]; [8],26.7%
same,EUCAST % Res,[3]; EUCAST BP,26.7%
same,EUCAST % Sus,[3]; EUCAST BP,73.3%
same,MIC50,[4]; 2018 global collection,0.25 µg/mL
same,MIC90,[4]; 2018 global collection,8 µg/mL
same,CLSI % Res,[4]; [8],23.8%
same,EUCAST % Res,[4]; EUCAST BP,23.8%
same,EUCAST % Sus,[4]; EUCAST BP,76.2%
same,MIC50,[5],1 µg/mL
same,MIC90,[5],1 µg/mL
same,Number of isolates inhibited at MIC of 0.25 µg/mL,[5],4
same,Number of isolates inhibited at MIC of 0.5 µg/mL,[5],21
same,Number of isolates inhibited at MIC of 1 µg/mL,[5],452
same,Number of isolates inhibited at MIC of 2 µg/mL,[5],21
same,Number of isolates inhibited at MIC of 4 µg/mL,[5],2
same,Number of isolates inhibited at MIC of 16 µg/mL,[5],1
same,Number of isolates inhibited at MIC of ≤0.125 µg/mL,[5],1
"NCCN[C@H]1CC[C@H](CC(=O)N[C@H]2Cc3cccc(C(=O)O)c3OB2O)CC1 [Tan, taniborbactam]",IC50,KPC-2,0.0158 µM
same,IC50,OXA-23,> 3 µM
same,IC50,OXA-24/40,> 10 µM
same,IC50,OXA-48,1.56 µM
same,IC50,OXA-51,> 10 µM
same,IC50,OXA-58,> 10 µM
"NC(=O)[C@@H]1CC[C@@H]2CN1C(=O)N2OS(=O)(=O)O [Avi, avibactam]",IC50,OXA-51,> 10 µM
same,IC50,OXA-58,> 10 µM
"NCCONC(=O)[C@@H]1CC[C@@H]2CN1C(=O)N2OS(=O)(=O)O [Nac, nacubactam]",IC50,KPC-2,0.0272 µM
same,IC50,OXA-23,> 3 µM
same,IC50,OXA-24/40,> 10 µM
same,IC50,OXA-48,> 3 µM
same,IC50,OXA-51,> 10 µM
same,IC50,OXA-58,> 10 µM
